Measured values taken from patent publication US10676507B2, “Peptide and composition containing the same for anti-inflammation, anti-fibrosis, wound healing, and anticancer treatment” (GemVax & KAEL CO., LTD., priority 2015, dated 2020).

How the values were obtained:
TGF-β = assay: Western blotting of TGF-β signaling inhibition (pSmad2/3, Smad2/3) in HepG2 cell line; type: cell-based, human; details: 10 μM peptide
Experimental: To identify an inhibitory effect of TGF-β, considered as the main cause of fibrosis, of the novel peptides Pep-WH-1 to Pep-WH-12, an experiment for confirming a TGF-β signaling inhibitory action in a HepG2 cell line was carried out as follows.
Reagents and materials used in the present experiment are as follows. Powder-type novel peptides were dissolved in 0.2 μm filtered sterile water, and then stored in the form of aliquots at −70° C., and, when in use, the stored peptides were thawed. A HepG2 cell line (ATCC HB-8065; American Type Culture Collection) was used, and recombinant human TGF-β was dissolved in 4 mM HCl to prepare a 10 μg/mL stock. SB431542 (Sigma) as a positive control was used after being prepared into 10 mM stock.
2×10^6 HepG2 cells (ATCC HB-8065) were seeded in a 60 mm petri dish, and then cultured in a CO2 incubator for 16 hours. Subsequently, the medium was replaced by a serum-free medium (SFM) and further cultured for 24 hours. Thereafter, the medium was replaced with 10 ng/mL of TGF-β1, and the HepG2 cells were treated with each of the novel peptides at each concentration (1 μM and 10 μM) and then cultured for 72 hours. Groups treated with the respective novel peptides were further cultured in a CO2 incubator at 37° C. for 1 hour.
To measure anti-fibrotic activities of the novel peptides, an experiment for measuring a degree of TGF-β signaling inhibition was carried out by western blotting, and a detailed description of the experimental method is as follows.
Cells treated with each peptide were washed twice with PBS, collected in a 1.5 mL EP tube using a cell scraper, and then centrifuged using a centrifugal separator (1,000 rpm, 4° C., 2 minutes) to remove the supernatant, and then 100 μL each was added to RIPA-treated HepG2 cells. The HepG2 cells were incubated on ice for 40 minutes, and then mixed by shaking every 10 minutes (vertex, micro-centrifuge pre-cooled to 4° C.), and each sample was mixed 40 times to 50 times using a 1 mL syringe. Lastly, the resulting mixture was centrifuged at 13,000 rpm for 15 minutes and the obtained supernatant was used.
30 μg of protein was subjected to 8% sodium dodecyl sulfate-polyacrylamide gel electrophoresis (SDS-PAGE) to be transferred to polyvinylidene difluoride (PVDF) membranes (Millipore). The PVDF membranes were blocked with 5% skim milk and incubated with particular primary antibodies. The antibodies used in this experiment are as follows: Smad 2/3 (60, 52 kDa, 5% BSA 1:1000, #3102, Cell signaling), pSmad2/3 (cell signaling #3102), and GAPDH (37 kDa, 5% BSA 1:1000, #2118, Cell signaling). Subsequently, the PVDF membranes were washed with tris-buffered saline containing 0.1% Tween-20 (TBST), and then reacted with an HRP-conjugated anti-rabbit antibody (manufactured by Jackson ImmunoResearch Laboratories, Inc.). Afterwards, ECL detection (Amersham Pharmacia Biotech) was performed thereon, and the acquired images were analyzed using an image analyzer (GE Healthcare, ImageQuant LAS 4000).
To measure TGF-β inhibitory effects, pSmad2/3 and Smad2/3 were used as TGF-β signaling activity markers, and GAPDH was used as a reference group in electrophoresis. The TGF-β signaling activity markers which were expressed at a high concentration as TGF-β was inhibited were used.
(§1) All data are expressed as mean±S.E.M., and statistical processing was performed by an ANOVA test. The SigmaStat statistical program was used and statistical analysis was performed using a Kruskal-Wallis test and a Mann-Whitney U-test. In addition, comparison between the groups was performed using a Tukey test and a p value less than 0.05 was determined as statistically significant.

TNF-α [1] = assay: ELISA of TNF-α amounts in LPS-induced THP-1 cells; type: cell-based, human; details: all the concentrations (1 μM, 5 μM, 10 μM); FIG. 2
Experimental: (§2) An experiment was carried out using THP-1 cells (American Type Culture Collection (ATCC), Manassas, Va., USA), which is a human acute monocytic leukemia cell line. THP-1 cells were suspended in RPMI 1640 medium to a concentration of 1×10^5 cells per well in a 96 well plate and incubated for 24 hours. At this time, the THP-1 cells were treated with phorbol 12-myristate 13-acetate (PMA) (Sigma) to differentiate into macrophages.
The ELISA test method was as follows. THP-1, which is a monocyte cell line distributed from ATCC, was sub-cultured and prepared in the P3 stage, and the cell line was distributed into wells of a well plate and treated with PMA to differentiate into macrophages. The differentiated cells were treated with LPS to induce an inflammatory reaction (to induce the production of TNF-alpha), and were treated with each of the novel peptides at each concentration (1 μM, 5 μM, and 10 μM), and the amounts of TNF-α were measured by ELISA. Relative values for a non-inflammation group and a complete inflammation group were calculated, and estrogen (E2) was set as a positive control and a non-treated cell line not treated with the novel peptides was set as a general control to perform comparative analysis. E2 is known as a steroid that inhibits the production of TNF-α in THP-1.
as §1, with “mean±standard error of the mean (S.E.M.),” for “mean±S.E.M.,”, “A” for “The”

wound-induced SD rats = assay: Wound area in full-thickness excision wound-induced animal model; type: in vivo, Sprague-Dawley (SD) rats; details: 50 μL of 100 μg/mL applied every two days
Experimental: To confirm wound healing effects of the novel peptides Pep-WH-8, Pep-WH-9, Pep-WH-11, and Pep-WH-1, a wound-induced animal model was treated with each of the novel peptides, and then an experiment to confirm an effect of each peptide in producing collagen needed for a decrease in wound size and in a wound healing process was carried out as follows.
Sprague-Dawley (SD) rats were selected because mice have thin skins and it is difficult to uniformly induce a wound in mice. To exclude effects due to hormonal changes, male SD rats were selected and 6-week-old SD rats were purchased and acclimated for about 1 week. However, to more precisely obtain experimental results, an experiment was carried out after the 6-week-old SD rats became 11 weeks old. Since experimental animals are sensitive to olfactory responses and may attack other individual, individuals were separated from each other after wounds were formed, such as 1 rat for each cage, and observed.
The following method was used to form full-thickness excision in the prepared experimental animals. To induce anesthesia, a mixture of 10 mg/kg (body weight) of xylazine-HCl and 100 mg/kg (body weight) of ketamine HCl were intraperitoneally injected into the experimental animals or the experimental animals were administered the mixture via a respiratory anesthesia system. After the induction of anesthesia, hairs on the back of the experimental animal in a prone position were shaved cleanly, the back was disinfected with betadine, and then one circular full-thickness excision was made on a site apart from the highest portion of the back to each of left and right sides by a distance of about 1 cm, using a 16 mm punch. Separate dressing was not performed on the wound sites.
The full-thickness excision-induced animal model was divided into the following groups and a drug was applied on each group immediately after the formation of the excision and every two days. For the application method, a material was adjusted to a concentration of 1 mg/mL, and then, immediately before the experiment, the material was diluted 10 times to a concentration of 100 μg/mL. 50 μL of the material was applied dropwise on each excision.
[…] When the wounds were completely healed, the wound healing date was recorded. Generally, on about day 9, individuals with the wound sizes decreased to 5% of the initial wounds began to appear. The wound sites were photographed with a ruler, and then the acquired images were analyzed using the Image J program (NIH, USA) to calculate wound areas, and the wound areas were compared with each other.

TNF-α [2] = assay: RT-qPCR of TNF-α mRNA expression in LPS-treated THP-1 cells; type: cell-based, human; details: 1 μM, the lowest treatment concentration; FIG. 1
Experimental: as §2
The RT-qPCR test method was as follows. THP-1 cells were plated on a 6-well plate at a concentration of 2×10^6 cells/well and treated with 100 ng/mL of PMA for 24 hours to differentiate into macrophages. The media were removed and the differentiated THP-1 cells were washed twice with serum-free media (SFM), and then each novel peptide was treated with 10 ng/mL of LPS at each concentration of 1 μM, 5 μM, and 10 μM for 6 hours. RNA was extracted using RNeasy® Plus Mini Kit (Qiagen), and the extracted RNA was quantified and then cDNA synthesis was performed using a Reverse Transcription System (Promega). […]
All data are expressed as mean±standard error of the mean (S.E.M.), and statistical processing was performed by an ANOVA test. […] In addition, comparison between the groups was performed using a Tukey test and a p value less than 0.05 was determined as statistically significant.

[3] = day 3 after full-thickness excision
[4] = day 1 after full-thickness excision

Row | Substance | TGF-β inhibitory activity compared to positive control 10 μM SB431542 (TGF-β) | inflammation-inducing activity (TNF-α amount) compared to E2 positive control (TNF-α [1]) | further results
1 | ALSSRLRF (Pep-WH-3 peptide) | higher TGF-β inhibitory activity | – | –
2 | ALSTRLRA (Pep-WH-4 peptide) | higher TGF-β inhibitory activity | – | –
3 | ALSTRLRF (Pep-WH-6 peptide) | higher TGF-β inhibitory activity | – | –
4 | ALSTRLRG (Pep-WH-5 peptide) | higher TGF-β inhibitory activity | – | –
5 | ALTSKLRF (Pep-WH-12 peptide) | higher TGF-β inhibitory activity | lower inflammation-inducing activity | wound size compared to control (wound-induced SD rats; [3]): smaller wound size
6 | ALTSRVRA (Pep-WH-7 peptide) | higher TGF-β inhibitory activity | – | –
7 | ALTSRVRF (Pep-WH-9 peptide) | – | lower inflammation-inducing activity | wound size compared to control (wound-induced SD rats; [4]): smaller wound size
8 | ALTSRVRG (Pep-WH-8 peptide) | – | lower inflammation-inducing activity | wound size compared to control (wound-induced SD rats; [3]): smaller wound size
9 | Pep-WH-11: novel peptide prepared by the same method as Pep-WH-1; sequence not printed in Table 2 (ALSTRLRG; Pep-WH-11 peptide) | – | lower inflammation-inducing activity | wound size compared to control (wound-induced SD rats; [4]): smaller wound size; anti-inflammatory activity (TNF-α mRNA inhibition), comparison among peptides (TNF-α [2]): highest anti-inflammatory activity
